What all share (experiment): NCI anticancer screen, dose series, 48 h
In test [1] the test system is DU-145 prostate.
Test [2] relates to UACC-62 melanoma.
In test [3] the test system is SN12C renal.
In test [4] the test system is COLO 205 colon.
Test [5] concerns SK-MEL-2 melanoma.
Test [6] deals with PC-3 prostate.
The test system of test [7] is SW-620 colon.
The test system of test [8] is UO-31 renal.
The subject of test [9] is HT29 colon.
Test [10] relates to HCT-116 colon.
For test [11], the system named is SNB-19 CNS.
For test [12], the system named is OVCAR-4 ovarian.
Test [13] concerns SK-MEL-5 melanoma.

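Values below derive from 48-hour exposures of cells grown in 96-well plates, with endpoints linearly interpolated between the two concentrations bracketing the appropriate inhibition level. TGI: total growth inhibition.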

In the case of `O=c1[nH]nc(Cc2ccccc2)n1N=C1CCCCC1`, the TGI in [1], in test [2], in [3], in [4], in [5] and in test [6] was over 100 µM throughout. In addition, the TGI in [7], in test [8], in test [9], in test [10], in test [11] and in test [12] was over 100 µM each time. The molecule further yielded a TGI in test [13] of over 100 µM.

`CN(C)Cc1cc(N=Nc2c(Cl)cccc2Cl)ccc1O`: the TGI in test [1], in test [2], in test [3], in [4], in [5] and in [6] was over 100 µM in each case. Moreover, the TGI in test [7], in test [8], in [9], in [10], in [11] and in test [12] was over 100 µM in each case. The same molecule gave a TGI in test [13] of 52.1 µM.

Regarding `CN(C)c1ccc(/C=C(\NC(=O)c2ccccc2)c2nc3ccccc3c(=O)o2)cc1`, the TGI in [1], in [2], in [3], in [4], in [5] and in test [6] was over 100 µM in each case. For the same molecule, the TGI in test [7], in test [8], in test [9], in test [10], in test [11] and in [12] was over 100 µM each time. For the same molecule, the TGI in [13] was over 100 µM.

For the molecule `CCCC[P+](CCCC)(CCCC)C(C(=O)OC)C(C(=O)OC)=C1SC(C(=O)OC)=C(C(=O)OC)S1` (stereo not drawn), the TGI in test [1], in test [2], in test [3], in test [4], in test [5] and in [6] was over 100 µM throughout. The TGI in [7], in test [8], in [9], in test [10], in [11] and in test [12] was over 100 µM each time. This molecule also yielded a TGI in test [13] of over 100 µM.

For the molecule `COc1ccccc1-c1n[nH]c(-c2ccccc2O)n1`, the TGI in test [1], in test [2], in test [3], in test [4], in [5] and in [6] was over 100 µM throughout. The TGI in test [7], in test [8], in test [9], in test [10], in [11] and in test [12] was over 100 µM in each case. The molecule also showed a TGI in test [13] of over 100 µM.

For `Cc1nc2ccc(S(=O)(=O)Nc3ccccn3)cc2c(=O)n1NS(=O)(=O)c1ccccn1`, the TGI in [1], in test [2], in test [3], in test [4], in test [5] and in [6] was over 100 µM in each case. The TGI in [7], in [8], in [9], in test [10], in test [11] and in test [12] was over 100 µM throughout. The TGI in test [13] was over 100 µM.

For `CC1(C)C2CC1C(/C=N\OCC(=O)O)=CC2=O` (stereo not drawn), the TGI in [1], in [2], in test [3], in test [4], in test [5] and in test [6] was over 100 µM in each case. Further, the TGI in [7], in test [8], in [9], in test [10], in [11] and in [12] was over 100 µM each time. Also, the TGI in [13] was over 100 µM.

Turning to `CCOC(=O)CCN1C(=O)c2ccc(NC(=O)C(=O)O)cc2S1(=O)=O`, the TGI in test [1], in test [2], in test [3], in test [4], in test [5] and in [6] was over 100 µM in each case. Also, the TGI in test [7], in test [8], in [9], in test [10], in test [11] and in [12] was over 100 µM in each case. The same molecule displayed a TGI in test [13] of over 100 µM.

With `CSC1=C(C)S/C(=C\c2ccc(/C=C3\SC(C)=C(SC)S3)cc2)S1`, the TGI in test [1], in test [2], in test [3], in test [4], in [5] and in test [6] was over 100 µM throughout. For the same molecule, the TGI in [7], in test [8], in test [9], in [10], in test [11] and in [12] was over 100 µM in each case. The same molecule showed a TGI in test [13] of over 100 µM.

`N#Cc1c(-c2cccc(Br)c2)cc(-c2ccc(Cl)cc2)nc1N`: the TGI in test [1] is over 100 µM; in test [2], 29.2 µM; in test [3] it was 35.9 µM; in [4], 27.2 µM; in [5], 31.5 µM; in test [6], 71.3 µM. Moreover, the TGI turned out to be 36 µM in test [7]; 48.7 µM in test [8]; 39.2 µM in test [9]; 34.8 µM in test [10]; 40.1 µM in [11]; 13.5 µM in test [12]. Moreover, the TGI in [13] stood at 30.7 µM.

On to `CCOC(=O)C12C3CCC1C2C(=O)C3` (stereo not drawn), for which the TGI in test [1], in test [2], in [3], in [4], in [5] and in test [6] was over 100 µM throughout. The TGI in test [7], in test [8], in test [9], in test [10], in test [11] and in test [12] was over 100 µM each time. This molecule also showed a TGI in test [13] of over 100 µM.

Regarding `COc1cc(/C=C2\N=C(c3ccccc3)N(c3ccc(S(=O)(=O)Nc4nccs4)cc3)C2=O)ccc1O`, the TGI in [1], in test [2], in test [3], in test [4], in [5] and in test [6] was over 100 µM in each case. In addition, the TGI in test [7], in test [8], in [9], in test [10], in test [11] and in test [12] was over 100 µM throughout. In [13], this molecule displayed a TGI of over 100 µM.

Consider `CCCCCCCCCCCCOCCCCCCCCC/C=C/c1ccc2c(c1)OCCOCCOCCOCCO2`, for which the TGI in test [1] is over 100 µM; in test [2], 30.3 µM; in [3], 50.8 µM; in [4], 35.2 µM; in test [5], 30.2 µM; in [6] it was 39.9 µM. The TGI in test [7] was over 100 µM; in test [8] it was 39.4 µM; in [9], 45.4 µM; in test [10] it was 29.5 µM; in test [11], 77.6 µM; in test [12] it was 45.1 µM. For the same molecule, the TGI in test [13] came out at 29.7 µM.

Turning to `N/C(=N\Nc1cccc(Cl)c1)c1cccnc1`, the TGI in [1] is over 100 µM; in [2] it was over 100 µM; in test [3], over 100 µM; in test [4], over 72.1 µM; in test [5] it was over 100 µM; in test [6], over 100 µM. The TGI was over 100 µM in test [7]; over 55.7 µM in [8]; over 83.9 µM in test [9]; over 100 µM in test [10]; over 100 µM in [11]; over 100 µM in test [12]. This molecule also displayed a TGI in [13] of over 88 µM.

`[N-]=[N+]=NC1(c2ccccc2)C(=O)c2cccc3c4ccccc4n(c23)C1=O` (stereo not drawn): the TGI in test [1] was over 100 µM; in test [2] it was over 100 µM; in test [3] it was over 100 µM; in test [4], 38.7 µM; in [5], over 100 µM; in [6], over 100 µM. In addition, the TGI in test [7] was over 100 µM; in [8], over 100 µM; in test [9], 50.8 µM; in test [10], over 100 µM; in test [11], over 100 µM; in [12], over 100 µM. For the same molecule, the TGI in [13] is over 100 µM.

As to `O=C(c1c(F)c(F)c(F)c(F)c1F)n1c(=O)[nH]c2ccccc21`, the TGI was 29.6 µM in test [1]; 25.5 µM in [2]; 28.3 µM in test [3]; 25.7 µM in [4]; 17.5 µM in [5]; 21.8 µM in [6]. In addition, the TGI was 16.1 µM in test [7]; 25.2 µM in [8]; 18 µM in test [9]; 12.2 µM in [10]; 28.2 µM in test [11]; 31.8 µM in test [12]. The same molecule had a TGI in [13] of 28.7 µM.

For the molecule `COC(=O)C1=C(C(=O)OC)C2(c3ccccc3)c3ccccc3C(=O)C1N2C1CCCCC1` (stereo not drawn), the TGI is over 100 µM in test [1]; over 100 µM in test [2]; over 100 µM in test [3]; 32.8 µM in test [4]; over 100 µM in test [5]; over 100 µM in test [6]. The TGI in [7], in test [8], in test [9], in [10], in [11] and in test [12] was over 100 µM each time. In test [13], this molecule showed a TGI of over 100 µM.

For `CCOC(=O)c1nc2cc(F)c(F)cc2nc1NCc1cc(OC)c(OC)c(OC)c1`, the TGI in [1], in test [2], in [3], in test [4], in test [5] and in [6] was over 100 µM in each case. The TGI in [7], in test [8], in [9], in test [10], in test [11] and in test [12] was over 100 µM each time. In test [13], the TGI was over 100 µM.

`CN(C(=O)C12C3C4C1C1C2C3C41C(=O)O)C(C)(C)C` (stereo not drawn): the TGI in [1], in test [2], in test [3], in test [4], in [5] and in test [6] was over 100 µM in each case. The TGI in [7], in test [8], in [9], in [10], in test [11] and in test [12] was over 100 µM throughout. Further, in test [13], the TGI is over 100 µM.

As to `Cc1cccc2c1CC(C1OC(=O)c3c(C)cccc31)C2=O` (stereo not drawn), the TGI in [1], in [2], in test [3], in test [4], in test [5] and in [6] was over 100 µM each time. For the same molecule, the TGI in test [7], in [8], in test [9], in test [10], in [11] and in test [12] was over 100 µM each time. This molecule had a TGI in test [13] of over 100 µM.

`COc1ccc(/C=C/C(=N/NC(=O)N/N=C(/C=C/c2ccc(OC)cc2)C(C)C)C(C)C)cc1`: the TGI in [1], in test [2], in test [3], in [4], in [5] and in [6] was over 100 µM each time. The TGI in [7], in [8], in test [9], in test [10], in test [11] and in test [12] was over 100 µM in each case. Besides, the TGI in [13] is over 100 µM.

The values above are taken from PubChem BioAssay (NCI).
